Assays:
[1] = system: acute lymphoblastic leukemia cells MOLT4 (N-RasG12C); assay: Cell growth inhibition, suspension cells MOLT4; type: cell-based; settings: Homo sapiens, MOLT-4, 72 hours
Protocol: (§1) The cell growth inhibitory activity of the compound of the present invention on human culture cells having active-type mutation in Ras was evaluated by the below-mentioned method using suspension cancer cells {acute lymphoblastic leukemia cells CCRF-CEM (K-RasG12D), promyelocytic leukemia cells HL60 (N-RasQ61L), acute lymphoblastic leukemia cells MOLT4 (N-RasG12C), and small cell lung cancer cells SHP77 (K-RasG12V)} and adherent cancer cells {large bowel cancer cells SW480 (K-RasG12V) and large bowel cancer cell SW620 (K-RasG12V)}.
(§2) (Case of suspension cells) The cells suspended in a medium containing 0.5% (v/v) fetal bovine serum (FBS) and each compound solution (final DMSO concentration: 1%) were seeded on a 96-well plate (2 to 4×10^4 cells/well), and the resulting mixture was then cultured at 37° C. in the presence of 5% CO2 for 72 hours.
(§3) Thereafter, the number of viable cells was measured using Cell Counting Reagent (Nacalai Tesque) in accordance with the manufacturer's instructions. Inhibition by the test compound was determined according to the following equation: […]

[2] = system: acute lymphoblastic leukemia cells CCRF-CEM (K-RasG12D); assay: Cell growth inhibition, suspension cells CCRF-CEM; type: cell-based; settings: Homo sapiens, 1 μM, 72 hours, read-out: CCRF-CEM (KRasG12D) % inhibition at 1 μM
Protocol: as §1, §2, §3

[3] = target: GTPγS-bound human HRasG12V / human c-Raf-1 Ras binding domain (RBD) (Homo sapiens (Human), UniProt P01112, G12V); assay: Ras-Raf binding inhibition ELISA; settings: for IC50: anti-HRas antibody C-20, read-out: ELISA IC50 (μM): 1st Ab_C-20
Sequence of GTPγS-bound human HRasG12V / human c-Raf-1 Ras binding domain (RBD) (P01112 whole entry G12V, the tested form may be a part): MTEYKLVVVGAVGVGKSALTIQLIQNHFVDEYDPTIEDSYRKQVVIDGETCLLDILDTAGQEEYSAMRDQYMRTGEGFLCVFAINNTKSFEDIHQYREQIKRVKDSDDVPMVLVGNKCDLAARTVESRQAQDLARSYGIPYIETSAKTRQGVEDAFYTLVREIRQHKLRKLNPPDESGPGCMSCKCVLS
Procedure, shortened: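 GST-c-Raf-1 RBD (aa 50-131) immobilized on glutathione plates, then GTPγS-loaded full-length HRasG12V added with compound (final 10% DMSO), 1 h at 30 °C, pH 7.4 Tris buffer. Bound Ras detected by anti-HRas antibody (C-20 or 259) and HRP secondary, TMB read at OD450; IC50 from inhibition.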

[4] = system: large bowel cancer cell SW620 (K-RasG12V); assay: Cell growth inhibition, adherent cells SW620; type: cell-based; settings: Homo sapiens, SW-620, 72 hours; for inhibition at 3.2 µM: read-out: SW620 (KRasG12V) % inhibition at 3.2 μM (***)
Protocol: as §1
(Case of adherent cells) The cells suspended in a medium containing 10% FBS (1 to 2×10^4 cells/well) were seeded on a 96-well plate, and were then cultured at 37° C. in the presence of […]. Thereafter, the medium was exchanged with a medium containing […], to which each compound solution (final DMSO concentration: […]) had been added, and the cells were then cultured at 37° C. in the presence of […] for 72 hours.
as §3

[5] = system: small cell lung cancer cells SHP77 (K-RasG12V); assay: Cell growth inhibition, suspension cells SHP77; type: cell-based; settings: Homo sapiens, 72 hours; for inhibition at 3.2 µM: read-out: SHP77 (KRasG12V) % inhibition at 3.2 μM (**)
Protocol: as §1, §2, §3

inhibition at 1 µM [3] | IC50 [3] | SMILES | inhibition at 3.2 µM [4] | inhibition at 3.2 µM [5] | also measured
 |  | CCOc1cc(/C=C2/C(=O)c3ccccc3N2C(C)=O)ccc1OCC(N)=O [Example 13, 2-(4-((1-acetyl-3-oxoindolin-2-ylidene)methyl)-2-ethoxyphenoxy)-acetamide] |  |  | inhibition at 10 µM ([1]; 10 μM (**), read-out: MOLT-4 (NRasG12C) % inhibition at 10 μM (**)): 100%; inhibition at 1 µM [2]: 33%
 |  | COc1cc(/C=C2/C(=O)c3ccccc3N2C(C)=O)ccc1OCS(C)(=O)=O [Example 24, 1-acetyl-2-(3-methoxy-4-((methylsulfon-yl)methoxy)-benzylidene)-indolin-3-one] |  |  | inhibition at 1 µM ([1]; 1 μM, read-out: MOLT-4 (NRasG12C) % inhibition at 1 μM): 54%; inhibition at 1 µM [2]: 88%
53.5% | 0.9 µM | CC(=O)N1/C(=C\c2cc(-c3cccc(-c4ccccc4)c3)c3cc(C(=O)O)ccc3n2)C(=O)c2ccccc21 [Example 152, (Z)-4-([1,1′-biphenyl]-3-yl)-2-((1-acetyl-3-oxo-indolin-2-ylidene)-methyl)quinoline-6-carboxylic acid] | 97.2% | 81.1% | 
63.1% | 1.1 µM | CC(=O)N1/C(=C\c2cc(-c3cccc4ccccc34)c3cc(C(=O)O)ccc3n2)C(=O)c2ccccc21 [Example 153, (Z)-2-((1-acetyl-3-oxoindolin-2-ylidene)methyl)-4-(naphthalen-1-yl)quinoline-6-carboxylic acid] | 96.1% | 65.7% | 
52% | 0.9 µM | CC(=O)N1/C(=C\c2cc(-c3ccc(-c4ccccc4)cc3)c3cc(C(=O)O)ccc3n2)C(=O)c2ccccc21 [Example 156, (Z)-4-([1,1′-biphenyl]-4-yl)-2-((1-acetyl-3-oxoindolin-2-ylidene)methyl)-quinoline-6-carboxylic acid] | 99% | 35.1% | 
61.4% | 0.6 µM | CC(=O)N1/C(=C\c2cc(-c3ccc4ccccc4c3)c3cc(C(=O)O)ccc3n2)C(=O)c2ccccc21 [Example 157, (Z)-2-((1-acetyl-3-oxoindolin-2-ylidene)methyl)-4-(naphthalen-2-yl)quinoline-6-carboxylic acid] | 97.5% | 49.2% | 
59.2% | 0.8 µM | CC(=O)N1/C(=C\c2cc(-c3cccc(-c4ccccc4)c3)c3cc(C(=O)N4CCN(C5COC5)CC4)ccc3n2)C(=O)c2ccccc21 [Example 158, (Z)-2-((4-([1,1′-biphenyl]-3-yl)-6-(4-(oxetan-3-yl)-piperazine-1-carbonyl)quinolin-2-yl)methylene)-1-acetylindolin-3-one] | 58.5% | 72.4% | 
72.7% | 0.3 µM | CC(=O)N1/C(=C\c2cc(-c3cccc4ccccc34)c3cc(C(=O)N4CCN(C5COC5)CC4)ccc3n2)C(=O)c2ccccc21 [Example 159, (Z)-1-acetyl-2-((4-(naphthalen-1-yl)-6-(4-(oxetan-3-yl)piperazine-1-carbonyl)quinolin-2-yl)methylene)-indolin-3-one] | 96.6% | 52.6% | 
63.8% | 0.7 µM | CC(=O)N1/C(=C\c2cc(-c3ccc4ccccc4c3)c3cc(C(=O)N4CCN(C5COC5)CC4)ccc3n2)C(=O)c2ccccc21 [Example 163, (Z)-1-acetyl-2-((4-(naphthalen-2-yl)-6-(4-(oxetan-3-yl)piperazine-1-carbonyl)quinolin-2-yl)methylene)-indolin-3-one] | 34.7% | 72.3% | 
48.7% | 1.2 µM | CC(=O)N1/C(=C\c2cc(-c3cccc(-c4ccccc4)c3)c3cc(CNC4CCOCC4)ccc3n2)C(=O)c2ccccc21 [Example 164, (Z)-2-((4-([1,1′-biphenyl]-3-yl)-6-(((tetrahydro-2H-pyran-4-yl)amino)-methyl)quinolin-2-yl)methylene)-1-acetylindolin-3-one] |  | 43.5% | 
62.2% | 0.8 µM | CC(=O)N1/C(=C\c2cc(-c3cccc4cccnc34)c3cc(CNC4CCOCC4)ccc3n2)C(=O)c2ccccc21 [Example 167, (Z)-1-acetyl-2-((6-(((tetrahydro-2H-pyran-4-yl)-amino)methyl)-[4,8′-biquinolin]-2-yl)methylene)-indolin-3-one] | 64.4% | 65.8% | 
48.4% | 1.3 µM | CC(=O)N1/C(=C\c2cc(-c3ccc(-c4ccccc4)cc3)c3cc(CNC4CCOCC4)ccc3n2)C(=O)c2ccccc21 [Example 168, (Z)-2-((4-([1,1′-biphenyl]-4-yl)-6-(((tetrahydro-2H-pyran-4-yl)amino)-methyl)quinolin-2-yl)methylene)-1-acetylindolin-3-one] |  | 53.1% | 
52.4% | 0.9 µM | CC(=O)N1/C(=C\c2cc(-c3ccc4ccccc4c3)c3cc(CNC4CCOCC4)ccc3n2)C(=O)c2ccccc21 [Example 169, (Z)-1-acetyl-2-((4-(naphthalen-2-yl)-6-(((tetrahydro-2H-pyran-4-yl)-amino)methyl)-quinolin-2-yl)-methylene)indolin-3-one] | 35.1% | 51.5% | 
43.7% | 1.5 µM | CC(=O)N1/C(=C\c2cc(-c3nccn3C)c3cc(C(=O)N4CCOCC4)ccc3n2)C(=O)c2ccccc21 [Example 180, (Z)-1-acetyl-2-((4-(1-methyl-1H-imidazol-2-yl)-6-(morpholine-4-carbonyl)quinolin-2-yl)methylene)-indolin-3-one] |  | 69.2% | 
66.7% |  | CC(=O)N1CCc2cc(-c3cc(/C=C4/C(=O)c5ccccc5N4C(C)=O)nc4ccccc34)ccc2C1 [Example 187, (Z)-1-acetyl-2-((4-(2-acetyl-1,2,3,4-tetra-hydroisoquinolin-6-yl)-quinolin-2-yl)methylene)-indolin-3-one] |  |  | inhibition at 1 µM ([4]; 1 μM, read-out: SW620 (KRasG12V) % inhibition at 1 μM): 39.3%; inhibition at 1 µM ([5]; 1 μM, read-out: SHP77 (KRasG12V) % inhibition at 1 μM): 66.8%
60.4% |  | CC(=O)N1CCc2c(cccc2-c2cc(/C=C3/C(=O)c4ccccc4N3C(C)=O)nc3ccccc23)C1 [Example 193, (Z)-1-acetyl-2-((4-(2-acetyl-1,2,3,4-tetra-hydroisoquinolin-5-yl)quinolin-2-yl)methylene)-indolin-3-one] | 96.1% | 98.1% | 
55.4% | 0.9 µM | CC(=O)N1/C(=C\c2cc(-c3cnccn3)c3cc(C(=O)N4CCOCC4)ccc3n2)C(=O)c2ccccc21 [Example 194, (Z)-1-acetyl-2-((6-(morpholine-4-carbonyl)-4-(pyrazin-2-yl)-quinolin-2-yl)-methylene)indolin-3-one] |  | 58.3% | 
55.7% | 0.9 µM | CC(=O)N1/C(=C\c2ccc3c(-c4cccc5ccccc45)c(C(=O)N4CCOCC4)ccc3n2)C(=O)c2ccccc21 [Example 195, (Z)-1-acetyl-2-((6-(morpholine-4-carbonyl)-5-(naphthalen-1-yl)-quinolin-2-yl)-methylene)indolin-3-one] | 95.4% | 96.4% | 
 |  | CC(=O)N1/C(=C\c2ccc3cc(C(=O)N4CCOCC4)cc(-c4cccc5ccccc45)c3n2)C(=O)c2ccccc21 [Example 197, 1-acetyl-2-((6-(morpholine-4-carbonyl)-8-(naphthalen-1-yl)-quinolin-2-yl)-methylene)indolin-3-one] | 35.5% | 65.7% | inhibition at 10 µM [3]: 35.3%
 |  | CC(=O)N1/C(=C\c2nc3ccc(C(=O)O)cc3cc2-c2cccc3ccccc23)C(=O)c2ccccc21 [Example 202, (Z)-2-((1-acetyl-3-oxoindolin-2-ylidene)methyl)-3-(naphthalen-1-yl)-quinoline-6-carboxylic acid] | 96.6% | 63.6% | 

— patent US20250091994A1, “RAS/RAF BINDING INHIBITOR COMPOUND” (NATIONAL UNIVERSITY CORPORATION KOBE UNIVERSITY, priority 2021, published 2025)
